Legend:
[1] = not given; remark: listed apart in the source
[2] = method code SF-HPLC, from DOI: 10.1016/j.jchromb.2013.02.012, PMID: 23500352; conditions: pH 4.4
[3] = method code SF-RC, from DOI: 10.1021/jm901332c, PMID: 19921956; conditions: pH 7.4
[4] = not given; remark: listed apart in the source
[5] = method code SF-HPLC, from DOI: 10.1016/j.bmcl.2004.01.062, PMID: 15026043; conditions: pH 5.5
[6] = not given; remark: listed apart in the source
[7] = method code SF-GLC, from DOI: 10.1021/jm00240a002, PMID: 1151965
[8] = not given; remark: listed apart in the source
[9] = method code SF, from DOI: 10.1093/jnci/60.2.345, PMID: 621753
[10] = method code SF-GLC, from DOI: 10.1021/je970020p
[11] = method code HPLC, from DOI: 10.1016/j.ejmech.2015.05.022, PMID: 26005028; conditions: pH 7.1
[12] = not given; remark: listed apart in the source
[13] = method code SF-HPLC, from DOI: 10.1021/jm00169a024, PMID: 2194033; conditions: pH 7.4
[14] = method code SF-RC, from DOI: 10.1002/ps.2780190203
[15] = method code SF-AS, from DOI: 10.1039/ft9938903773
[16] = method code SF-AS, from DOI: 10.1111/j.2042-7158.1989.tb06384.x, PMID: 2576447; conditions: pH 7.4
[17] = method code SF, from DOI: 10.1016/0006-2952(91)90449-f, PMID: 1930261; conditions: pH 2.0
[18] = not given; remark: listed apart in the source
[19] = not given; remark: listed apart in the source
[20] = method code HPLC, from DOI: 10.1016/j.bmcl.2004.01.062, PMID: 15026043; conditions: pH 5.5
[21] = method code SF-FL, from DOI: 10.1016/0006-2952(96)00248-1, PMID: 8687500
[22] = method code SF-AS, from DOI: 10.1016/0045-6535(84)90003-1
[23] = method code SF-AS, from PMID: 640322; conditions: pH 4.0
[24] = not given; remark: listed apart in the source
[25] = not given; remark: listed apart in the source
[26] = method code SF-GLC, from Park, Y.; Park, S. (2000). Determination and prediction of octanol/water partition coefficients and air-water partition coefficients for environmental toxic chemicals. 11(7)773-779.
[27] = not given; remark: listed apart in the source
[28] = method code SF-GLC, from DOI: 10.1016/0043-1354(83)90068-4
[29] = pH 5.6
[30] = not given; remark: listed apart in the source
[31] = not given; remark: listed apart in the source
[32] = not given; remark: listed apart in the source
[33] = method code SF-AS, from DOI: 10.1002/qua.560100722; conditions: pH 7.8

## Nc1ccc(O)c([N+](=O)[O-])c1
other
  logP: 0.96

## Nc1ccc(F)cc1F
[1]
  logP: 1.56

## CS(=O)(=O)OC[C@H](O)[C@@H](O)COS(C)(=O)=O
[2]
  logD: -1.58

## Cn1cnc2c(Br)ncnc21
[3]
  logD: 0.52

## Nc1ncnc2nn[nH]c12
[4]
  logP: -0.96

## CN(C)C(=O)Oc1ccc(CC(C(=O)OCC(C)(C)C)C(=O)C2N(S(=O)(=O)c3cnn(C)c3)CSC2(C)C)cc1 (stereo unspecified)
[5]
  logD: 3.42

## COc1ccc(CC2C(=O)NC(C)C(=O)N(C)C3Cc4ccc(cc4)Oc4cc(ccc4OC(C)=O)CC(C(=O)NC(C)C(=O)NC(C)C(=O)N2C)N(C)C3=O)cc1 (stereo unspecified)
[6]
  logP: 3.19

## FC(F)OC(F)(F)C(F)Cl (stereo unspecified)
[7]
  logP: 2.1

## Cc1cc(C(=O)N2Cc3ccc(C(=O)N(C)CCF)n3Cc3ccccc32)ccc1-c1ccccc1C(F)(F)F
[8]
  logP: 5.2

## O=NN(CCCl)C(=O)NCCO
[9]
  logP: 0.3

## Clc1cc(Cl)c(Cl)c(Cl)c1Cl
[10]
  logP: 5.2

## CC(=O)OC[C@H]1O[C@@H](OC(C)=O)[C@H](NC(=O)CBr)[C@@H](OC(C)=O)[C@@H]1OC(C)=O
[11]
  logD: 0.23

## COc1ccc(CC2C(=O)NC(C)C(=O)N(C)C3Cc4ccc(cc4)Oc4cc(ccc4OC)CC(C(=O)NC(C)C(=O)NC(C)C(=O)N2C)N(C)C3=O)cc1 (stereo unspecified)
[6]
  logP: 3.17

## Nc1ccccc1N
other
  logP: 0.15

## c1ccnnc1
[12]
  logP: -0.15

## CCN1CC(C(O)C(CC2CCCCC2)NC(=O)[C@H](Cc2cnc[nH]2)NC(=O)[C@H](Cc2ccc(OC)cc2)NC(=O)N(C)CC(O)CO)OC1=O (stereo partly specified)
[13]
  logD: 1.42

## O=c1[nH]cnc2c1ncn2[C@@H]1O[C@H](CO)[C@@H](O)[C@H]1O
[4]
  logP: -1.81

## Cc1cc(OCC(=O)O)ccc1S(C)(=O)=O
[14]
  logP: 0.54

## O=C1C=CC(=O)C=C1
[15]
  logP: 0.3

## Cn1c(=O)[nH]c(=O)c2nc[nH]c21
[16]
  logD: -0.72

## O=C1NC(=O)C(O)C(=O)N1
[17]
  logD: -1.85

## CC(C)C(=O)NC(N)=O
[18]
  logP: 0.04

## Clc1cc(Cl)cc(Cl)c1
[10]
  logP: 4.09

## COc1ccnnc1
[12]
  logP: 0.24

## OCCBr
[19]
  logP: 0.29

## CS(=O)(=O)OC[C@H](O)[C@@H]1CO1
[2]
  logD: -1.18

## CCOC(=O)C(Cc1ccc(OC(=O)N(C)C)cc1)NC(=O)C1N(S(=O)(=O)c2cnn(C)c2)CSC1(C)C (stereo unspecified)
[20]
  logD: 2.14

## COc1cccc2c1C(=O)c1c(O)c3c(c(O)c1C2=O)C[C@@](O)(C(C)=O)C[C@@H]3O[C@H]1C[C@H](NC(=O)OCc2ccc(NC(=O)[C@@H]3O[C@H](C(=O)O)[C@@H](O)[C@H](O)[C@H]3O)cc2)[C@H](O)[C@H](C)O1
[21]
  logP: -1.7

## Oc1ccc(Cl)c(Cl)c1Cl
[22]
  logP: 3.8

## NC(=O)N(CCCCCCN(N=O)C(N)=O)N=O
[23]
  logD: 0.58

## C=CC(=O)OC
[24]
  logP: 0.74

## CCOCC
[7]
  logP: 0.89

## O=c1ccc(O)n[nH]1
[14]
  logP: -0.63

## Oc1c(F)c(F)c(F)c(F)c1F
[25]
  logP: 2.96

## C1CCOC1
[26]
  logP: 0.5

## O=C1C=CC(=O)c2c(O)ccc(O)c21
[15]
  logP: 1.79

## C=CC(=O)OCC(C)(C)C
[24]
  logP: 2.32

## COc1cccc2c1C(=O)c1c(O)c3c(c(O)c1C2=O)C[C@@](O)(C(C)=O)C[C@@H]3O[C@H]1C[C@H](NC(=O)CCCNC(=O)[C@@H]2O[C@H](C(=O)O)[C@@H](O)[C@H](O)[C@H]2O)[C@H](O)[C@H](C)O1
[21]
  logP: -2

## CCCOC(C)=O
[27]
  logP: 1.11

## CC(=O)CC(C)C
[26]
  logP: 1.4

## Oc1c(Cl)ccc(Cl)c1Cl
[22]
  logP: 3.77

## BrC1CCCCC1
[28]
  logP: 3.2

## c1ccc(-c2ccccc2)cc1
[1]
  logP: 4.05

## CCOc1cccc(O)c1
[29]
  logD: 1.98

## CCN1CC(C(O)C(CC2CCCCC2)NC(=O)C(Cc2cnc[nH]2)NC(=O)N(Cc2ccc(OC)cc2)C(=O)N(C)CCOCOC)OC1=O (stereo unspecified)
[13]
  logD: 2.3

## COc1cccc2c1C(=O)c1c(O)c3c(c(O)c1C2=O)C[C@@](O)(C(C)=O)C[C@@H]3O[C@H]1C[C@H](NC(=O)Cc2ccccc2NC(=O)[C@@H]2O[C@H](C(=O)O)[C@@H](O)[C@H](O)[C@H]2O)[C@H](O)[C@H](C)O1
[21]
  logP: -1.1

## O=C1NC(=O)C(=O)C(=O)N1
[17]
  logD: -1.86

## Cc1cc(C(=O)N2Cc3ccc(C(=O)N(CCO)CCO)n3Cc3ccccc32)ccc1-c1ccccc1CCF
[8]
  logP: 3.14

## O=[N+]([O-])c1ccc(CCBr)cc1
[30]
  logP: 2.9

## Oc1c(Cl)cccc1Cl
[31]
  logP: 2.92

## CC(C)(C)CO
[19]
  logP: 1.29

## Nc1c(Cl)c(Cl)cc(Cl)c1Cl
[32]
  logP: 4.06

## BrC=C(Br)Br
[28]
  logP: 3.2

## Cn1cnc2c(Cl)ncnc21
[3]
  logD: 0.38

## CCCCN(N=O)C(N)=O
[23]
  logD: 1.04

## CCCCCC(C)=O
[27]
  logP: 2.08

## CN(C)C(=O)Oc1ccc(CC(NC(=O)C2N(S(=O)(=O)c3cnn(C)c3)CSC2(C)C)C(=O)OCOC(=O)C(C)(C)C)cc1 (stereo unspecified)
[20]
  logD: 3.14

## O=[N+]([O-])c1ccc(Cl)c(Cl)c1Cl
[30]
  logP: 3.54

## CCN1C[C@H]([C@@H](O)[C@H](CC2CCCCC2)NC(=O)[C@@H](Cc2cnc[nH]2)NC(=O)[C@@H](Cc2ccc(OC)cc2)NC(=O)N(C)CCOCOCCOC)OC1=O
[13]
  logD: 2.03

## Nc1cc(Cl)c(Cl)cc1Cl
[32]
  logP: 3.31

## COc1cccc2c1C(=O)c1c(O)c3c(c(O)c1C2=O)CC(O)(C(C)=O)CC3OC1CC(NC(=O)CN)C(O)C(C)O1 (stereo unspecified)
[33]
  logD: 0.64

## Oc1c(Cl)c(Cl)cc(Cl)c1Cl
[31]
  logP: 4.47

## NS(=O)(=O)c1ccc(O)cc1
[29]
  logD: 0.06

## CCCNC(=O)CBr
[11]
  logD: 0.91

## O=NN(CCCl)C(=O)N1CCCC1
[9]
  logP: 0.9

## Oc1cccc(Br)c1Br
[25]
  logP: 3.37

## COc1ccc(CC2C(=O)NC(C)C(=O)N(C)C3Cc4ccc(cc4)Oc4cc(ccc4O)CC(C(=O)NC(C)C(=O)NC(C)C(=O)N2C)N(C)C3=O)cc1 (stereo unspecified)
[6]
  logP: 2.72

## Cc1cc(C(=O)N2Cc3ccc(C(=O)N(CCO)CCF)n3Cc3ccccc32)ccc1-c1ccccc1C(F)(F)F
[8]
  logP: 4.89

## CC(C)CC(=O)NC(N)=O
[18]
  logP: 0.45

## COCCOCCOC(=O)C(Cc1ccc(OC(=O)N(C)C)cc1)NC(=O)C1N(S(=O)(=O)c2cnn(C)c2)CSC1(C)C (stereo unspecified)
[5]
  logD: 1.41

## CCCn1c(=O)n(C)c(=O)c2nc[nH]c21
[16]
  logD: 1.02
